# Patent US11180474B2 (BRISTOL-MYERS SQUIBB COMPANY, priority 2016, dated 2021)
# pIC50: −log10 of the molar value.
# Target: T1, human TLR8 (Homo sapiens, UniProt Q9NR97)
# T1 construct: host or cells: HEK-Blue cells
# T1 sequence (Q9NR97 27-1041): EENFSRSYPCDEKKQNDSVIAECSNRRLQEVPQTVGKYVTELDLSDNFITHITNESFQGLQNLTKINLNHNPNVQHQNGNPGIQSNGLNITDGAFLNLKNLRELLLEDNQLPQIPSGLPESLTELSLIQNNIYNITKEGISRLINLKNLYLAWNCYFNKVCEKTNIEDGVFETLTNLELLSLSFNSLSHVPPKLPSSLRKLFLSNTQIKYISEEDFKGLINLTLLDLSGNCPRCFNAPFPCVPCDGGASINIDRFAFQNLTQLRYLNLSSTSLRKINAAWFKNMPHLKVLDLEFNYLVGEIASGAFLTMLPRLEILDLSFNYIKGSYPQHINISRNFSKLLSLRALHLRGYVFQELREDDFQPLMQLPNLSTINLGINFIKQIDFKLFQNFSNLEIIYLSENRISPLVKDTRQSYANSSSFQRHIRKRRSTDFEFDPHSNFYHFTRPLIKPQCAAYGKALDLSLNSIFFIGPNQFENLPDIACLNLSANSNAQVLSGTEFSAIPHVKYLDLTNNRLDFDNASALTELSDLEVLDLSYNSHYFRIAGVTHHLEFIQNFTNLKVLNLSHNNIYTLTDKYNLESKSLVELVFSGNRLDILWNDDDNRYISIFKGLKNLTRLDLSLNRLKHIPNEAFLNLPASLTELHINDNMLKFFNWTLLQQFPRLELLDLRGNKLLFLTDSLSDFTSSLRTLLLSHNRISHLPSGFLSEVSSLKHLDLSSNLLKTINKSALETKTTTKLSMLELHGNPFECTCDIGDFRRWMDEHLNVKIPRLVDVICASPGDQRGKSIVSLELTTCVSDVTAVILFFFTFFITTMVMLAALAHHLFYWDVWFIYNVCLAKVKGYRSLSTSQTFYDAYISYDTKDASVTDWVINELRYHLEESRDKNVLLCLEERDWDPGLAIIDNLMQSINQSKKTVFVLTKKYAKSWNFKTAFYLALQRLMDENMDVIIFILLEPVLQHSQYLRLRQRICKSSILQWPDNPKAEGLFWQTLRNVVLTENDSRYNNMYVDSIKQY
# Experiment: TLR8 inhibition reporter assay (HEK-Blue cells, SEAP reporter, R848 stimulation)
# Format: cell-based
# Settings: HEK-Blue cells overexpressing human TLR8, R848 15.9 μM
# How it was run: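 In this cell reporter format, test compounds at 0.05 nM-50 μM final incubate 22 h with seeded cells (TLR7 15000, TLR8 20,000 per well). SEAP read-out by HEK-Blue Detection medium yields % inhibition relative to agonist/DMSO and known-inhibitor wells.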
row,pIC50,Structure (SMILES)
1,7.42,"COc1ccc(-c2[nH]c3ccc(C4CCN(C(=O)CNC5CCCC5O)CC4)cc3c2C(C)C)cc1OC (stereo not drawn) [Example 236, 1-(4-(2-(3,4-dimethoxyphenyl)-3-isopropyl-1H-indol-5-yl)piperidin-1-yl)-2-((2-hydroxycyclopentyl)amino)ethan-1-one]"
2,7.15,"COc1ccc(-c2[nH]c3ccc(C4CCN(C(=O)CN5CCC[C@H](C(=O)N6C(C)CCC6C)C5)CC4)cc3c2C(C)C)cc1OC (stereo partly drawn) [Example 300, 1-(4-(2-(3,4-dimethoxyphenyl)-3-isopropyl-1H-indol-5-yl)piperidin-1-yl)-2-((3S)-3-(2,5-dimethylpyrrolidine-1-carbonyl)piperidin-1-yl)ethan-1-one]"
3,7.60,"COc1ccc(-c2[nH]c3ccc(C4CCN(C(=O)CN5CCC[C@H](C(=O)N6CCN(C(C)=O)CC6)C5)CC4)cc3c2C(C)C)cc1OC [Example 284, (S)-2-(3-(4-acetylpiperazine-1-carbonyl)piperidin-1-yl)-1-(4-(2-(3,4-dimethoxyphenyl)-3-isopropyl-1H-indol-5-yl)piperidin-1-yl)ethan-1-one]"
4,7.66,"COc1ccc(-c2[nH]c3ccc(C4CCN(CC(=O)N5CCCC(CO)C5)CC4)cc3c2C(C)C)cc1OC (stereo not drawn) [Example 275, 2-(4-(2-(3,4-dimethoxyphenyl)-3-isopropyl-1H-indol-5-yl)piperidin-1-yl)-1-(3-(hydroxymethyl)piperidin-1-yl)ethan-1-one]"
5,7.43,"COc1ccc(-c2[nH]c3ccc(C4CCN(CC(=O)NCCCO)CC4)cc3c2C(C)C)cc1OC [Example 277, 2-(4-(2-(3,4-dimethoxyphenyl)-3-isopropyl-1H-indol-5-yl)piperidin-1-yl)-N-(3-hydroxypropyl)acetamide]"
6,7.51,"COc1ccc(-c2[nH]c3ccc(C4CCN(C(=O)CN5CCC[C@@H](C(=O)N6CCCC6)C5)CC4)cc3c2C(C)C)cc1OC [Example 303, (R)-1-(4-(2-(3,4-dimethoxyphenyl)-3-isopropyl-1H-indol-5-yl)piperidin-1-yl)-2-(3-(pyrrolidine-1-carbonyl)piperidin-1-yl)ethan-1-one]"
7,7.39,"COc1ccc(-c2[nH]c3ccc(C4CCN(C(=O)CN5CCC[C@@H](C(=O)NCC#N)C5)CC4)cc3c2C(C)C)cc1OC [Example 308, (R)—N-(cyanomethyl)-1-(2-(4-(2-(3,4-dimethoxyphenyl)-3-isopropyl-1H-indol-5-yl)piperidin-1-yl)-2-oxoethyl)piperidine-3-carboxamide]"
8,6.30,"COc1ccc(-c2[nH]c3ccc(C4CCN(C(=O)CO)CC4)cc3c2C(C)C)cc1OC [Example 313, 1-(4-(2-(3,4-dimethoxyphenyl)-3-isopropyl-1H-indol-5-yl)piperidin-1-yl)-2-hydroxyethanone]"
9,7.43,"CCN(CC)C(=O)C1CCCN(C(=O)CN2CCC(c3ccc4[nH]c(-c5ccc(OC)c(OC)c5)c(C(C)C)c4c3)CC2)C1 (stereo not drawn) [Example 272, 1-(2-(4-(2-(3,4-dimethoxyphenyl)-3-isopropyl-1H-indol-5-yl)piperidin-1-yl)acetyl)-N,N-diethylpiperidine-3-carboxamide]"
10,7.80,"COc1ccc(-c2[nH]c3ccc(C4CCN(C(=O)CN5CCC(CO)CC5)CC4)cc3c2C(C)C)cc1OC [Example 243, 1-(4-(2-(3,4-dimethoxyphenyl)-3-isopropyl-1H-indol-5-yl)piperidin-1-yl)-2-(4-(hydroxymethyl)piperidin-1-yl)ethan-1-one]"
11,7.77,"COc1ccc(-c2[nH]c3ccc(C4CCN(C(=O)CN5CCCC(CO)C5)CC4)cc3c2C(C)C)cc1OC (stereo not drawn) [Example 249, 1-(4-(2-(3,4-dimethoxyphenyl)-3-isopropyl-1H-indol-5-yl)piperidin-1-yl)-2-(3-(hydroxymethyl)piperidin-1-yl)ethan-1-one]"
12,7.77,"COc1ccc(-c2[nH]c3ccc(C4CCN(Cc5cncn5C)CC4)cc3c2C(C)C)cc1OC [Example 258, 2-(3,4-dimethoxyphenyl)-3-isopropyl-5-(1-((1-methyl-1H-imidazol-5-yl)methyl)piperidin-4-yl)-1H-indole]"
13,7.20,"COc1ccc(-c2[nH]c3ccc(C4CCN(C(=O)CN[C@H](CO)CC(C)C)CC4)cc3c2C(C)C)cc1OC [Example 231, (S)-1-(4-(2-(3,4-dimethoxyphenyl)-3-isopropyl-1H-indol-5-yl)piperidin-1-yl)-2-((1-hydroxy-4-methylpentan-2-yl)amino)ethan-1-one]"
14,5.22,"COc1ccc(-c2[nH]c3ccc(C4CCNCC4O)cc3c2C(C)C)cc1OC (single isomer, unassigned) [Example 318, 4-(2-(3,4-dimethoxyphenyl)-3-isopropyl-1H-indol-5-yl)piperidin-3-ol 2,2,2-trifluoroacetate]"
15,7.89,"COc1ccc(-c2[nH]c3ccc(C4CCN(C(=O)CN5CCC(N6CCN(C)CC6)CC5)CC4)cc3c2C(C)C)cc1OC [Example 241, 1-(4-(2-(3,4-dimethoxyphenyl)-3-isopropyl-1H-indol-5-yl)piperidin-1-yl)-2-(4-(4-methylpiperazin-1-yl)piperidin-1-yl)ethan-1-one]"
16,7.37,"COc1ccc(-c2[nH]c3ccc(C4CCN(C(=O)CN5CCN(CC(=O)NC(C)C)CC5)CC4)cc3c2C(C)C)cc1OC [Example 229, 2-(4-(2-(4-(2-(3,4-dimethoxyphenyl)-3-isopropyl-1H-indol-5-yl)piperidin-1-yl)-2-oxoethyl)piperazin-1-yl)-N-isopropylacetamide]"
17,7.96,"COc1ccc(-c2[nH]c3ccc(C4CCN(CC(=O)N5CC[C@H](O)C5)CC4)cc3c2C(C)C)cc1OC [Example 278, (S)-2-(4-(2-(3,4-dimethoxyphenyl)-3-isopropyl-1H-indol-5-yl)piperidin-1-yl)-1-(3-hydroxypyrrolidin-1-yl)ethan-1-one]"
18,7.85,"COc1ccc(-c2[nH]c3ccc(C4CCN(C(=O)CN5CCC[C@H](C(=O)N6CCC(N(C)C)CC6)C5)CC4)cc3c2C(C)C)cc1OC [Example 289, (S)-1-(4-(2-(3,4-dimethoxyphenyl)-3-isopropyl-1H-indol-5-yl)piperidin-1-yl)-2-(3-(4-(dimethylamino)piperidine-1-carbonyl)piperidin-1-yl)ethan-1-one]"
19,6.93,"COc1ccc(-c2[nH]c3ccc(C4CCN(C(=O)CNCC(N)=O)CC4)cc3c2C(C)C)cc1OC [Example 228, 2-((2-(4-(2-(3,4-dimethoxyphenyl)-3-isopropyl-1H-indol-5-yl)piperidin-1-yl)-2-oxoethyl)amino)acetamide]"
20,7.66,"COc1ccc(-c2[nH]c3ccc(C4CCN(C(=O)CN5CCCC(C(=O)NC6CCN(C(C)C)CC6)C5)CC4)cc3c2C(C)C)cc1OC (single isomer, unassigned) [Example 280, 1-(2-(4-(2-(3,4-dimethoxyphenyl)-3-isopropyl-1H-indol-5-yl)piperidin-1-yl)-2-oxoethyl)-N-(1-isopropylpiperidin-4-yl)piperidine-3-carboxamide]"
21,7.43,"COc1ccc(-c2[nH]c3ccc(C4CCN(C(=O)CN5CCC[C@H](C(=O)NC(C)C)C5)CC4)cc3c2C(C)C)cc1OC [Example 285, (S)-1-(2-(4-(2-(3,4-dimethoxyphenyl)-3-isopropyl-1H-indol-5-yl)piperidin-1-yl)-2-oxoethyl)-N-isopropylpiperidine-3-carboxamide]"
22,7.49,"COc1ccc(-c2[nH]c3ccc(C4CCN(C(=O)CN5CCC[C@H](C(=O)N(C)C(C)C)C5)CC4)cc3c2C(C)C)cc1OC [Example 288, (S)-1-(2-(4-(2-(3,4-dimethoxyphenyl)-3-isopropyl-1H-indol-5-yl)piperidin-1-yl)-2-oxoethyl)-N-isopropyl-N-methylpiperidine-3-carboxamide]"
23,7.23,"COc1ccc(-c2[nH]c3ccc(C4CCN(C(=O)CN5CCC[C@@H](C(=O)NCC(N)=O)C5)CC4)cc3c2C(C)C)cc1OC [Example 309, (R)—N-(2-amino-2-oxoethyl)-1-(2-(4-(2-(3,4-dimethoxyphenyl)-3-isopropyl-1H-indol-5-yl)piperidin-1-yl)-2-oxoethyl)piperidine-3-carboxamide]"
24,6.62,"COc1ccc(-c2[nH]c3ccc(C4CCN(C5C[C@H]6CC[C@@H](C5)N6C)CC4)cc3c2C)cc1OC (stereo partly drawn) [Example 21, 2-(3,4-dimethoxyphenyl)-3-methyl-5-(1-((1R,5S)-8-methyl-8-azabicyclo[3.2.1]octan-3-yl)piperidin-4-yl)-1H-indole]"
